Experimental data: ChEMBL document CHEMBL2007661, “Compounds: GSK PKIS; Assays: UNC Frye lab” (2012)
Values joined by “and” are separate entries in the source; they are usually repeats but may differ in a detail not shown here. Equal entries are not always repeated.

Tests used:
[1] = target: T1, Inhibitor of nuclear factor kappa-B kinase subunit epsilon (Homo sapiens) (UniProt Q14164); details: at 1 µM
T1 sequence (whole entry): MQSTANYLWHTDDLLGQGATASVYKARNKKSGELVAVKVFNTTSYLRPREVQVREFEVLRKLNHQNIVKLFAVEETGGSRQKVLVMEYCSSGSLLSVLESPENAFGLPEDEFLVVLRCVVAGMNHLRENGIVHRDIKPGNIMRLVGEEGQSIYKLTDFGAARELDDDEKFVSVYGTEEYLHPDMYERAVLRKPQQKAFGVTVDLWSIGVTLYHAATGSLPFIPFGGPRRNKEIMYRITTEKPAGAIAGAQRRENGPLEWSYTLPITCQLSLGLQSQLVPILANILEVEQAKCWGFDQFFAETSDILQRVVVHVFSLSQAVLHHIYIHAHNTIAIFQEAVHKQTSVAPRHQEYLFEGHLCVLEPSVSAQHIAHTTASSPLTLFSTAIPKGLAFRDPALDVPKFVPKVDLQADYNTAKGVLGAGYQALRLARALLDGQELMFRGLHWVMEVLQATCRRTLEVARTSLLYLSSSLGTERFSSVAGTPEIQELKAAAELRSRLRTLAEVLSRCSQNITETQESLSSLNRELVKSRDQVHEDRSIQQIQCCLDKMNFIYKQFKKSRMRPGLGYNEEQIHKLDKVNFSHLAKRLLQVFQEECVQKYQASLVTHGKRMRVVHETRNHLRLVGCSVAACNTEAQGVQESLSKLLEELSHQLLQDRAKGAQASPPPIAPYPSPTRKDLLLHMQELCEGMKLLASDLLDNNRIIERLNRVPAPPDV

[2] = target: T2, Tyrosine-protein kinase Mer (Homo sapiens) (UniProt Q12866); details: at 10 µM
T2 sequence (whole entry): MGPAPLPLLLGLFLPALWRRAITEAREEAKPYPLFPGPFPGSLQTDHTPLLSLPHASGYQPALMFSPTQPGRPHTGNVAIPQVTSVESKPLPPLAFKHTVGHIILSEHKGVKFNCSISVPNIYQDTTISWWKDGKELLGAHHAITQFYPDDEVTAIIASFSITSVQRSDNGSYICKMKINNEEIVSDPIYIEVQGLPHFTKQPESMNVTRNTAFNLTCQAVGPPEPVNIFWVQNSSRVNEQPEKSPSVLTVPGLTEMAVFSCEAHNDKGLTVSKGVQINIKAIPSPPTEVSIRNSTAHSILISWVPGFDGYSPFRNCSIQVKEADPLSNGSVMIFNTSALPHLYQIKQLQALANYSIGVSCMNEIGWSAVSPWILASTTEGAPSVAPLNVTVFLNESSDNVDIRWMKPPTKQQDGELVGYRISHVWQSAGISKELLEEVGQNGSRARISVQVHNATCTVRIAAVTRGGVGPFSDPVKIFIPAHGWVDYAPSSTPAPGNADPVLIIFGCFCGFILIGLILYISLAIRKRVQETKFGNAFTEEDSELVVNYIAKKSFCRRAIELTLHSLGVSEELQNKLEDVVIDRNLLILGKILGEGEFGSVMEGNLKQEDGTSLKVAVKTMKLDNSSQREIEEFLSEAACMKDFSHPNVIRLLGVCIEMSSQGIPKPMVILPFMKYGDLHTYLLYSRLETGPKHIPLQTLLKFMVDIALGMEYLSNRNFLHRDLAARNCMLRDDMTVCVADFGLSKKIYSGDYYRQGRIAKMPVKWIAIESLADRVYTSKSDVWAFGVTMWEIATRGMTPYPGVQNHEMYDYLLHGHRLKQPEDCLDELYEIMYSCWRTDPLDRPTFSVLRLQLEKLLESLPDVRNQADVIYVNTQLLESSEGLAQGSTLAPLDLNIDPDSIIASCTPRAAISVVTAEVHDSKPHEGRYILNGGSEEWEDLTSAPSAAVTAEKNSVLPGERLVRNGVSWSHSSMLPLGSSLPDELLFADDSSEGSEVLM

[3] = target: T3, Serine/threonine-protein kinase TBK1 (Homo sapiens) (UniProt Q9UHD2); details: at 1 µM
T3 sequence (whole entry): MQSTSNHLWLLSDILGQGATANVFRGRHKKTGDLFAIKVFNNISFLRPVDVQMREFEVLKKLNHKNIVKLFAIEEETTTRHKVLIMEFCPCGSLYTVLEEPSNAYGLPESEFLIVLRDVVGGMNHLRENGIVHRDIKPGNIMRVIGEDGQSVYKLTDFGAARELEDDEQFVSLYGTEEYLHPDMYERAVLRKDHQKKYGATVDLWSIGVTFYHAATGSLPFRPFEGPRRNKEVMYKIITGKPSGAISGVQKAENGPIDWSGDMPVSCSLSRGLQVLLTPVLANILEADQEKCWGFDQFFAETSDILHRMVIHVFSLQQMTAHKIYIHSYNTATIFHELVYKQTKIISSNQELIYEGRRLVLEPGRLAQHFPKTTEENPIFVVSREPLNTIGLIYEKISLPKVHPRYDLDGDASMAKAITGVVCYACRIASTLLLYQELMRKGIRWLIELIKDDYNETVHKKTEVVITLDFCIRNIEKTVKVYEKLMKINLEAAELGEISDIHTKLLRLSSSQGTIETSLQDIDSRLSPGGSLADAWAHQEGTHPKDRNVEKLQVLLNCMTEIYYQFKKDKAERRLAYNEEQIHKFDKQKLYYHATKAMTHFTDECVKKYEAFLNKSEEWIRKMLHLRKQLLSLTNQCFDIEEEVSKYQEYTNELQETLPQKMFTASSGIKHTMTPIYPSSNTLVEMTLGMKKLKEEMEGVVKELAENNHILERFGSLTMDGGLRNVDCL

| inhibition [1] | inhibition [2] [%] | inhibition [3] | SMILES |
| --- | --- | --- | --- |
| 33% | 68 | 46% and 45% | CC(C)=Cc1cccc2c1/C(=N/Nc1ccc(S(N)(=O)=O)cc1)C(=O)N2 |
| 0% and -1% | -9 | 0% and 3% | COc1cc(Nc2ncc(-c3ccccc3)o2)cc(OC)c1 |
| 55% | -1 | 76% and 77% | NS(=O)(=O)c1ccc(N/N=C2\C(=O)Nc3ccc4ncccc4c32)cc1 |
| 2% and 1% | 100 | 8% | COC(=O)Nc1nc2cc(Oc3ccc(NC(=O)Nc4ccccc4)cc3)ccc2[nH]1 |
| 96% | 3 | 55% and 59% | CCn1c(-c2nonc2N)nc2c(C#CC(C)(C)O)ncc(OCC3CCNCC3)c21 |
| 0% and -1% | -8 | -2% and -3% | Cc1ccc(C(=O)NC2CCCCC2)cc1-c1ccc(C(=O)NCC2CC2)cc1 |
| -4% | -1 | -3% and -2% | COc1cc2ncn(-c3cc(OCc4ccccc4C(F)(F)F)c(C(C)=O)s3)c2cc1OC |
| -2% and -3% | 2 | -4% and -2% | NS(=O)(=O)c1ccc(Nc2cc(-c3cccc(O)c3)n[nH]2)cc1 |
| -1% and -3% | 9 | 0% | CCN1CCC(CC(=O)Nc2n[nH]c3nnc(-c4cccc(F)c4F)cc23)CC1 |
| 0% and 1% | -2 | 4% and 1% | Nc1nc(-c2ccc(F)cc2)c(-c2ccc3ncccc3n2)s1 |
| 2% | 5 | 5% and 2% | COc1cc2ncnc(Nc3ccc4c(cnn4Cc4ccccc4)c3)c2cc1OC |
| 9% and 10% | -2 | -3% and -1% | COc1ccc(-c2oc3ncnc(N)c3c2-c2ccc(NC(=O)Nc3cc(C(F)(F)F)ccc3F)cc2)cc1 |
| 5% and 4% | 0 | 8% and 20% | COc1ccc(Nc2ncc(-c3ccccc3)o2)cc1OC |
| -1% and 2% | -9 | 1% and 2% | Cc1c2ccc(N(C)c3ccnc(Nc4cccc(S(N)(=O)=O)c4)n3)cc2nn1C |
| -3% and -1% | 8 | -3% and -1% | CCc1cccc(NC(=O)Nc2ccc(Oc3ccc4nc(NC(=O)OC)[nH]c4c3)cc2)c1 |
| 3% | 3 | 5% and 4% | NC(=O)c1ccc(Oc2nccc(-c3c(-c4ccc(F)cc4)ncn3C3CCNCC3)n2)cc1 |
| -5% | -10 | -5% and -7% | CC(C)c1ccc(-c2cc(-c3c[nH]nc3-c3ccccn3)ccn2)cc1 |
| 0% | 83 | 18% and 25% | O=C(Nc1n[nH]c2nc(-c3ccco3)c(Br)cc12)C1CC1 |
| 4% | 63 | 29% and 26% | Cc1cc(Cl)cc2c1NC(=O)C2=NNc1ccc(S(N)(=O)=O)cc1 |
| -3% and -2% | 4 | -5% and -7% | c1ccc(Cc2nc3ccc(Nc4ncnc5ccccc45)cc3[nH]2)cc1 |
| 0% and -3% | 47 | -2% and -5% | CC1=C(C(=O)Nc2ccc3[nH]ncc3c2)C(c2ccc3ccccc3c2)CC(=O)N1 (stereo not drawn) |
| 0% | 5 | 2% and 1% | CNC(=O)c1cncc(/C=C/c2ccccc2Cl)c1 |
| 2% and 1% | 2 | 5% and 4% | NS(=O)(=O)c1ccc(N/N=C2\C(=O)Nc3ccc(Cl)cc32)cc1 |
| 1% | -2 | 2% and 1% | Cc1ccc(O)cc1Nc1ccnc2cc(-c3ccccn3)ccc12 |
| -1% | -4 | -1% and -2% | Cc1nnc(-c2cccc(-c3ccc(C(=O)NCC4CC4)cc3)c2)o1 |
| 17% and 18% | -1 | 18% | CN(c1ccc(NC(=O)Nc2ccc(OC(F)(F)F)cc2)cc1)c1ccnc(Nc2cccc(S(N)(=O)=O)c2)n1 |
